Measurements reported in US6653342B2, “13-substituted milbemycin derivatives, their preparation and their use against insects and other pests” (Sankyo Company, Limited, priority 2000, dated 2003).

How the values were obtained:
[1] = system: cat fleas; assay: Test on insecticidal effect against cat fleas (Test Example 12, serum feeding through Parafilm); assay type: in vivo; conditions: 1 ppm in bovine serum, 37° C., after 48 hours, corrected by control group
Method: (§1) A test container wherein the living space of fleas was isolated from bovine serum by use of Parafilm™ (obtainable from Aldrich Chemical Co. Ltd.), which is usually used as an artificial skin, was prepared. A compound to be tested was added to the bovine serum in an amount sufficient for its concentration to be 1 ppm, and the fleas were allowed to suck the serum sample through the Parafilm™ at 37° C. Each group consisted of 20 fleas. […] By counting the dead fleas in a control group without a test compound, the mortality was corrected.

[2] = system: cat fleas; assay: whole plant or invertebrate; assay type: in vivo; conditions: Ctenocephalides felis; 1 ppm in bovine serum sucked through Parafilm at 37° C.; dead fleas after 48 hours; 20 fleas per group; corrected by control group
Method: as §1

| SMILES | Mortality (%) [1] [%] | mortality at 1 ppm [2] [%] | mortality at 1 ppm ([1]; Ctenocephalides felis) [%] |
| --- | --- | --- | --- |
| CCC1OC2(CCC1C)CC1CC(CC=C(C)C(OC(=O)C3(c4ccc(NS(C)(=O)=O)cc4)CCC3)C(C)C=CC=C3COC4C(O)C(C)=CC(C(=O)O1)C34O)O2 (stereo not drawn) [Example 17, 13-[1-(4-Methanesulfonylaminophenyl)cyclobutanecarbonyloxy]-5-hydroxy-milbemycin A4] | 94.9 |  |  |
| CCC1OC2(CCC1C)CC1CC(CC=C(C)C(OC(=O)C3(c4ccc(NC(=O)C(F)(F)F)cc4)CCC3)C(C)C=CC=C3COC4C(O)C(C)=CC(C(=O)O1)C34O)O2 (stereo not drawn) [Example 18, 13-[1-(4-Trifluoroacetylaminophenyl)cyclobutanecarbonyloxy]-5-hydroxy-milbemycin A4] | 91.5 |  |  |
| CCC1OC2(CCC1C)CC1CC(CC=C(C)C(OC(=O)C3(c4ccc(NC(C)=O)cc4)CCC3)C(C)C=CC=C3COC4C(O)C(C)=CC(C(=O)O1)C34O)O2 (stereo not drawn) [Example 16, 13-[1-(4-Acetylaminophenyl)cyclobutanecarbonyloxy]-5-hydroxymilbemycin A4] | 92.9 |  |  |
| C#CCCC(=O)Nc1ccc(C2(C(=O)OC3C(C)=CCC4CC(CC5(CCC(C)C(CC)O5)O4)OC(=O)C4C=C(C)C(O)C5OCC(=CC=CC3C)C45O)CCC2)cc1 (stereo not drawn) [Example 19, 13-[1-(4-Pentynoylaminophenyl)cyclobutanecarbonyloxy]-5-hydroxymilbemycin A4] | 90.7 |  |  |
| CC[C@H]1O[C@]2(CC[C@@H]1C)C[C@@H]1C[C@@H](C/C=C(\C)[C@H](OC(=O)C3(c4ccccc4)CCCC3)[C@@H](C)/C=C/C=C3\CO[C@@H]4[C@H](O)C(C)=C[C@@H](C(=O)O1)[C@]34O)O2 [Comparative Compound A, reference compound] |  | 2.4 | 2.4 |
